# Results taken from BindingDB's records for doi:10.1111/j.1747-0285.2008.00745.x (University of Connecticut, 2009).
# Molecular target: T1, Dihydrofolate reductase (Candida glabrata (strain ATCC 2001 / BCRC 20586 / JCM 3761 / NBRC 0622 / NRRL Y-65 / CBS 138), UniProt Q6FPH0)
# T1 sequence (Q6FPH0 whole entry): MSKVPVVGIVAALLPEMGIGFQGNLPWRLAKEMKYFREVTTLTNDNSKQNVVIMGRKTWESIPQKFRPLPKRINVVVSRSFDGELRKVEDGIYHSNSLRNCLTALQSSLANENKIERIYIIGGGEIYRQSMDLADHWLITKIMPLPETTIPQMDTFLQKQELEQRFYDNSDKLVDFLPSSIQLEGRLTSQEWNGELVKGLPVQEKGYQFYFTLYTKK
# Experiment: Enzyme Inhibition Assay
# Protocol: Enzyme activity assay were performed by monitoring the rate of enzyme-dependent NADPH consumption at an absorbance of 340 nm over 5 min.
row,IC50 [nM],Compound
1,5.5,"COc1cc(-c2c(C)cccc2C)cc(C(C)C#Cc2c(C)nc(N)nc2N)c1 (racemic) [Biphenyl antifolate, 6]"
2,10,"COc1cc(-c2ccc(C(C)(C)C)cc2)cc(C(C)C#Cc2c(C)nc(N)nc2N)c1 (racemic) [Biphenyl antifolate, 24]"
3,0.55,"COc1cc(-c2cc(C)cc(C)c2)cc([C@@H](C)C#Cc2c(C)nc(N)nc2N)c1 (racemic) [Biphenyl antifolate, 2]"
4,0.61,COc1cc(-c2ccc(C)cc2)cc([C@@H](C)C#Cc2c(C)nc(N)nc2N)c1 (racemic)
5,6.4,COc1ccc(-c2cc(OC)cc(C(C)C#Cc3c(C)nc(N)nc3N)c2)cc1 (racemic)
6,7.3,"COc1cc(-c2ccccc2C)cc(C(C)C#Cc2c(C)nc(N)nc2N)c1 (stereo unspecified) [5-{3-[3-methoxy-5-(2-methylphenyl)phenyl]but-1-yn-1-yl}-6-methylpyrimidine-2,4-diamine]"
